Our source for the Ki values is patent US8178522B2, “Thiazoles” (Hoffmann-La Roche Inc., priority 2009, dated 2012).

SMILES strings stand for the structures. Like-named read-outs stand apart in the source and are kept apart here.

The target of the assay is T1, GABA A α5 (α5β3γ2) (Homo sapiens, UniProt P18507+P31644).
T1 construct: expressed in transfected cells; host or cells: HEK293, transiently transfected; membrane preparation
Kind of assay: [3H]flumazenil competition binding, human GABA A α5 receptor. On the procedure: Membrane Preparation and Binding Assay
The affinity of compounds at GABA A receptor subtypes was measured by competition for [3H]flumazenil (85 Ci/mmol; Roche) binding to HEK293 cells expressing rat (stably transfected) or human (transiently transfected) receptors of compositional α1β3γ2, α2β3γ2, α3β3γ2 and α5β3γ2.
Cell pellets were suspended in Krebs-tris buffer (4.8 mM KCl, 1.2 mM CaCl2, 1.2 mM MgCl2, 120 mM NaCl, 15 mM Tris; pH 7.5; binding assay buffer), homogenized by polytron for ca. 20 sec on ice and centrifuged for 60 min at 4° C. (50000 g; Sorvall, rotor: SM24=20000 rpm). The cell pellets were re-suspended in Krebs-tris buffer and homogenized by polytron for ca. 15 sec on ice. Protein was measured (Bradford method, Bio-Rad) and aliquots of 1 mL were prepared and stored at −80° C.
Assays were incubated to equilibrium for 1 hour at 4° C. and harvested onto GF/C uni-filters (Packard) by filtration using a Packard harvester and washing with ice-cold wash buffer (50 mM Tris; pH 7.5). After drying, filter-retained radioactivity was detected by liquid scintillation counting. Ki values were calculated using Excel-Fit (Microsoft) and are the means of two determinations.

Where [1] appears, read: human receptor α5β3γ2 transiently transfected in HEK293 cells, competition for [3H]flumazenil 0.5 nM, 1 hour at 4° C., means of two determinations, read-out: hKi GABA A α5.

In the case of `CCCCc1noc(C)c1/C=C/c1nc(C)c(C(=O)N2CC3(COC3)C2)s1` [Example 123, {2-[(E)-2-(3-Butyl-5-methyl-isoxazol-4-yl)-vinyl]-4-methyl-thiazol-5-yl}-(2-oxa-6-aza-spiro[3.3]hept-6-yl)-methanone], the Ki under setting [1] was 1.1 nM.

In the case of `CCCCc1noc(C)c1CCc1nc(C)c(C(=O)N[C@@H](C)CO)s1` [Example 54, 2-[2-(3-Butyl-5-methyl-isoxazol-4-yl)-ethyl]-4-methyl-thiazole-5-carboxylic acid ((S)-2-hydroxy-1-methyl-ethyl)-amide], the Ki under setting [1] worked out at 15.9 nM.

As for `Cc1nc(CCc2c(-c3ccc(F)cn3)noc2C)sc1C(=O)NCC(F)(F)F` [Example 35, 2-{2-[3-(5-Fluoro-pyridin-2-yl)-5-methyl-isoxazol-4-yl]ethyl}-4-methyl-thiazole-5-carboxylic acid (2,2,2-trifluoro-ethyl)-amide], under setting [1], the Ki was found to be 6.6 nM.

Regarding `CCCCc1noc(C)c1COc1ncc(C(=O)NC(C)CO)s1` (racemic) [Example 133, Rac-2-(3-Butyl-5-methyl-isoxazol-4-ylmethoxy)-thiazole-5-carboxylic acid (2-hydroxy-1-methyl-ethyl)-amide], the Ki under setting [1] came out at 19.2 nM.

With `Cc1onc(-c2ccc(F)cn2)c1CCc1ncc(C(=O)NC2CCOCC2)s1` [Example 40, 2-{2-[3-(5-Fluoro-pyridin-2-yl)-5-methyl-isoxazol-4-yl]-ethyl}-thiazole-5-carboxylic acid (tetrahydro-pyran-4-yl)-amide], the Ki under setting [1] was found to be 13.3 nM.

For `CCCCc1noc(C)c1/C=C/c1nc(C)c(C(=O)NC)s1` [Example 122, 2-[(E)-2-(3-Butyl-5-methyl-isoxazol-4-yl)-vinyl]-4-methyl-thiazole-5-carboxylic acid methylamide], the Ki under setting [1] worked out at 5.7 nM.

On to `Cc1nc(CCc2c(-c3ccccn3)noc2C)sc1C(=O)NCC(F)(F)F` [Example 13, 4-Methyl-2-[2-(5-methyl-3-pyridin-2-yl-isoxazol-4-yl)-ethyl]-thiazole-5-carboxylic acid (2,2,2-trifluoro-ethyl)-amide], for which the Ki under setting [1] is 4.2 nM.

As to `CCCCc1noc(C)c1CCc1ncc(C(=O)NC2CCOCC2)s1` [Example 59, 2-[2-(3-Butyl-5-methyl-isoxazol-4-yl)-ethyl]-thiazole-5-carboxylic acid (tetrahydro-pyran-4-yl)-amide], the Ki under setting [1] came to 32.5 nM.

Turning to `Cc1onc(-c2ccccc2)c1/C=C/c1ncc(C(=O)NCCO)s1` [Example 67, 2-[(E)-2-(5-Methyl-3-phenyl-isoxazol-4-yl)-vinyl]-thiazole-5-carboxylic acid (2-hydroxy-ethyl)-amide], under setting [1], the Ki turned out to be 2.8 nM.

In the case of `Cc1onc(-c2ccc(F)cn2)c1/C=C/c1ncc(C(=O)NC2CC2)s1` [Example 79, 2-{(E)-2-[3-(5-Fluoro-pyridin-2-yl)-5-methyl-isoxazol-4-yl]-vinyl}-thiazole-5-carboxylic acid cyclopropylamide], the Ki worked out at 4.1 nM.

Regarding `CCCCc1noc(C)c1CCc1ncc(C(=O)NC(C)CO)s1` (stereo not shown) [Example 58, 2-[2-(3-Butyl-5-methyl-isoxazol-4-yl)-ethyl]-thiazole-5-carboxylic acid (2-hydroxy-1-methyl-ethyl)-amide], the Ki under setting [1] amounted to 50.9 nM.

In the case of `CCCCc1noc(C)c1/C=C/c1nc(C)c(C(=O)N[C@H]2CCC[C@@H]2O)s1` [Example 111, 2-[(E)-2-(3-Butyl-5-methyl-isoxazol-4-yl)-vinyl]-4-methyl-thiazole-5-carboxylic acid ((1S,2S)-2-hydroxy-cyclopentyl)-amide], the Ki under setting [1] amounted to 5.5 nM.

Regarding `Cc1nc(CCc2c(-c3ccccc3)noc2C)sc1C(=O)NC(C)CO` (racemic) [Example 3, Rac-4-Methyl-2-[2-(5-methyl-3-phenyl-isoxazol-4-yl)-ethyl]-thiazole-5-carboxylic acid (2-hydroxy-1-methyl-ethyl)-amide], under setting [1], the Ki is 7.9 nM.

With `Cc1nc(CCc2c(-c3ccc(F)cn3)noc2C)sc1C(=O)NC1CCOCC1` [Example 31, 2-{2-[3-(5-Fluoro-pyridin-2-yl)-5-methyl-isoxazol-4-yl]ethyl}-4-methyl-thiazole-5-carboxylic acid (tetrahydro-pyran-4-yl)-amide], under setting [1], the Ki was determined as 5.2 nM.

Regarding `Cc1nc(/C=C/c2c(-c3ccccc3)noc2C)sc1C(=O)NC(C)C` [Example 68, 4-Methyl-2-[(E)-2-(5-methyl-3-phenyl-isoxazol-4-yl)-vinyl]-thiazole-5-carboxylic acid isopropylamide], the Ki under setting [1] turned out to be 0.4 nM.

For the compound `CCCCc1noc(C)c1/C=C/c1nc(C)c(C(=O)NCCO)s1` [Example 95, 2-[(E)-2-(3-Butyl-5-methyl-isoxazol-4-yl)-vinyl]-4-methyl-thiazole-5-carboxylic acid (2-hydroxy-ethyl)-amide], the Ki under setting [1] was 2.2 nM.

Consider `Cc1onc(-c2ccc(F)cn2)c1/C=C/c1ncc(C(=O)NC(C)(C)CO)s1` [Example 80, 2-{(E)-2-[3-(5-Fluoro-pyridin-2-yl)-5-methyl-isoxazol-4-yl]-vinyl}-thiazole-5-carboxylic acid (2-hydroxy-1,1-dimethyl-ethyl)-amide], for which the Ki under setting [1] is 17.4 nM.

Regarding `Cc1onc(-c2ccccc2)c1COc1ncc(C(=O)NC2CCOCC2)s1` [Example 128, 2-(5-Methyl-3-phenyl-isoxazol-4-ylmethoxy)-thiazole-5-carboxylic acid (tetrahydro-pyran-4-yl)-amide], under setting [1], the Ki worked out at 1.8 nM.

With `CCCCc1noc(C)c1/C=C\c1nc(C)c(C(=O)NCCO)s1` [Example 101, 2-[(Z)-2-(3-Butyl-5-methyl-isoxazol-4-yl)-vinyl]-4-methyl-thiazole-5-carboxylic acid (2-hydroxy-ethyl)-amide], the Ki under setting [1] turned out to be 28.8 nM.

Turning to `Cc1nc(/C=C/c2conc2-c2ccc(F)cn2)sc1C(=O)NCC1CC1` [Example 92, 2-{(E)-2-[3-(5-Fluoro-pyridin-2-yl)-isoxazol-4-yl]-vinyl}-4-methyl-thiazole-5-carboxylic acid cyclopropylmethyl-amide], the Ki under setting [1] stood at 40.4 nM.

In the case of `Cc1nc(/C=C/c2c(-c3ccc(F)cn3)noc2C)sc1C(N)=O` [Example 76, 2-{(E)-2-[3-(5-Fluoro-pyridin-2-yl)-5-methyl-isoxazol-4-yl]-vinyl}-4-methyl-thiazole-5-carboxylic acid amide], the Ki under setting [1] came to 4.1 nM.

For the compound `CCCCc1noc(C)c1/C=C/c1nc(C)c(C(=O)O)s1` [Example 99, 2-[(E)-2-(3-Butyl-5-methyl-isoxazol-4-yl)-vinyl]-4-methyl-thiazole-5-carboxylic acid], the Ki under setting [1] was found to be 27.6 nM.

`Cc1nc(CCc2conc2-c2ccccn2)sc1C(=O)NC1CCOCC1` [Example 19, 4-Methyl-2-[2-(3-pyridin-2-yl-isoxazol-4-yl)-ethyl]-thiazole-5-carboxylic acid (tetra-hydro-pyran-4-yl)-amide]: the Ki under setting [1] was found to be 87.6 nM.

Consider `Cc1nc(CCc2c(-c3ccccc3)noc2C)sc1C(=O)NCC(C)(C)O` [Example 4, 4-Methyl-2-[2-(5-methyl-3-phenyl-isoxazol-4-yl)-ethyl]-thiazole-5-carboxylic acid (2-hydroxy-2-methyl-propyl)-amide], for which the Ki under setting [1] stood at 37.8 nM.

`Cc1onc(-c2ccccn2)c1CCc1ncc(C(=O)NCC2CC2)s1` [Example 26, 2-[2-(5-Methyl-3-pyridin-2-yl-isoxazol-4-yl)-ethyl]-thiazole-5-carboxylic acid cyclo-propylmethyl-amide]: under setting [1], the Ki is 34.7 nM.
